≈ marks a conversion by molar mass, not a printed value.
What was measured:
[1] = Antiproliferative activity against human HL60 cells assessed as growth inhibition after 72 hrs by MTT assay; format: functional, cell-based; conditions: HL-60, 72 h
[2] = Antiproliferative activity against human vincristine-resistant HL60/Vinc cells assessed as growth inhibition after 72 hrs by MTT assay; format: functional; conditions: Homo sapiens, HL60/vinc, 72 h
LoVo = assay: Antiproliferative activity against human LoVo cells assessed as growth inhibition after 72 hrs by SRB method; format: functional, cell-based
[3] = Antiproliferative activity against human doxorubicin-resistant LoVo/DX cells assessed as growth inhibition after 72 hrs by SRB method; format: functional, cell-based
HT-29 = assay: Antiproliferative activity against human HT-29 cells assessed as growth inhibition after 72 hrs by SRB method; format: functional, cell-based
[4] = Antiproliferative activity against human LS180 cells assessed as growth inhibition after 72 hrs by SRB method; format: functional, cell-based
[5] = Antiproliferative activity against human SW707 cells assessed as growth inhibition after 72 hrs by SRB method; format: functional, cell-based
BALB/3T3 = assay: Antiproliferative activity against mouse BALB/3T3 cells assessed as growth inhibition after 72 hrs by SRB method; format: cell-based; conditions: BALB/3T3, 72 h
HL-60 [6] = assay: Selectivity index, ratio of IC50 for mouse BALB/3T3 cells to IC50 for human HL60 cells; format: functional
[7] = Selectivity index, ratio of IC50 for mouse BALB/3T3 cells to IC50 for human HL60/Vinc cells; format: functional
[8] = Selectivity index, ratio of IC50 for mouse BALB/3T3 cells to IC50 for human LoVo/DX cells; format: functional
HL-60 [9] = assay: Resistance index, ratio of IC50 for human HL60/Vinc cells to IC50 for human HL60 cells
Staphylococcus aureus [10] = assay: Antimicrobial activity against Staphylococcus aureus […] 4163 after 18 hrs by two-fold serial microdilution method; format: functional
Staphylococcus aureus [11] = assay: Antimicrobial activity against Staphylococcus aureus ATCC 25923 after 18 hrs by two-fold serial microdilution method; format: functional; conditions: ATCC 25923, 18 h
Staphylococcus aureus [12] = assay: Antimicrobial activity against Staphylococcus aureus ATCC 6538 after 18 hrs by two-fold serial microdilution method; format: functional; conditions: ATCC 6538, 18 h
Staphylococcus aureus [13] = assay: Antimicrobial activity against Staphylococcus aureus ATCC 29213 after 18 hrs by two-fold serial microdilution method; format: functional; conditions: ATCC 29213, 18 h
[14] = test system: Staphylococcus epidermidis; assay: Antimicrobial activity against Staphylococcus epidermidis ATCC 12228 after 18 hrs by two-fold serial microdilution method; format: functional; conditions: ATCC 12228, 18 h
[15] = test system: Staphylococcus epidermidis; assay: Antimicrobial activity against Staphylococcus epidermidis ATCC 35984 after 18 hrs by two-fold serial microdilution method; format: functional; conditions: ATCC 35984, 18 h
Staphylococcus aureus [16] = assay: Antimicrobial activity against methicillin-resistant Staphylococcus aureus 452/11 after 18 hrs by two-fold serial microdilution method; format: functional; conditions: 452/11, 18 h
Staphylococcus aureus [17] = assay: Antimicrobial activity against methicillin-resistant Staphylococcus aureus 456/11 after 18 hrs by two-fold serial microdilution method; format: functional; conditions: 456/11, 18 h
Staphylococcus aureus [18] = assay: Antimicrobial activity against methicillin-resistant Staphylococcus aureus 462/11 after 18 hrs by two-fold serial microdilution method; format: functional; conditions: 462/11, 18 h
Staphylococcus aureus [19] = assay: Antimicrobial activity against methicillin-resistant Staphylococcus aureus 514/11 after 18 hrs by two-fold serial microdilution method; format: functional; conditions: 514/11, 18 h
Staphylococcus aureus [20] = assay: Antimicrobial activity against methicillin-resistant Staphylococcus aureus 522/12 after 18 hrs by two-fold serial microdilution method; format: functional; conditions: 522/12, 18 h
Staphylococcus aureus [21] = assay: Antimicrobial activity against methicillin-resistant Staphylococcus aureus 537/12 after 18 hrs by two-fold serial microdilution method; format: functional; conditions: 537/12, 18 h
Staphylococcus aureus [22] = assay: Antimicrobial activity against methicillin-resistant Staphylococcus aureus 572/12 after 18 hrs by two-fold serial microdilution method; format: functional; conditions: 572/12, 18 h
Staphylococcus aureus [23] = assay: Antimicrobial activity against methicillin-resistant Staphylococcus aureus 573/12 after 18 hrs by two-fold serial microdilution method; format: functional; conditions: 573/12, 18 h
Staphylococcus aureus [24] = assay: Antimicrobial activity against methicillin-resistant Staphylococcus aureus 585/12 after 18 hrs by two-fold serial microdilution method; format: functional; conditions: 585/12, 18 h
Staphylococcus aureus [25] = assay: Antimicrobial activity against methicillin-resistant Staphylococcus aureus 586/12 after 18 hrs by two-fold serial microdilution method; format: functional; conditions: 586/12, 18 h
[26] = test system: Staphylococcus epidermidis; assay: Antimicrobial activity against methicillin-resistant Staphylococcus epidermidis 459/11 after 18 hrs by two-fold serial microdilution method; format: functional; conditions: 459/11, 18 h
[27] = test system: Staphylococcus epidermidis; assay: Antimicrobial activity against methicillin-resistant Staphylococcus epidermidis 460/11 after 18 hrs by two-fold serial microdilution method; format: functional; conditions: 460/11, 18 h
[28] = test system: Staphylococcus epidermidis; assay: Antimicrobial activity against methicillin-resistant Staphylococcus epidermidis 461/11 after 18 hrs by two-fold serial microdilution method; format: functional; conditions: 461/11, 18 h
[29] = test system: Staphylococcus epidermidis; assay: Antimicrobial activity against methicillin-resistant Staphylococcus epidermidis 466/11 after 18 hrs by two-fold serial microdilution method; format: functional; conditions: 466/11, 18 h
[30] = test system: Staphylococcus epidermidis; assay: Antimicrobial activity against methicillin-resistant Staphylococcus epidermidis 467/11 after 18 hrs by two-fold serial microdilution method; format: functional; conditions: 467/11, 18 h
[31] = test system: Staphylococcus epidermidis; assay: Antimicrobial activity against methicillin-resistant Staphylococcus epidermidis 468/11 after 18 hrs by two-fold serial microdilution method; format: functional; conditions: 468/11, 18 h
[32] = test system: Staphylococcus epidermidis; assay: Antimicrobial activity against methicillin-resistant Staphylococcus epidermidis 469/11 after 18 hrs by two-fold serial microdilution method; format: functional; conditions: 469/11, 18 h
[33] = test system: Staphylococcus epidermidis; assay: Antimicrobial activity against methicillin-resistant Staphylococcus epidermidis 470/11 after 18 hrs by two-fold serial microdilution method; format: functional; conditions: 470/11, 18 h
[34] = test system: Staphylococcus epidermidis; assay: Antimicrobial activity against methicillin-resistant Staphylococcus epidermidis 488/11 after 18 hrs by two-fold serial microdilution method; format: functional; conditions: 488/11, 18 h
[35] = test system: Staphylococcus epidermidis; assay: Antimicrobial activity against methicillin-resistant Staphylococcus epidermidis 489/11 after 18 hrs by two-fold serial microdilution method; format: functional; conditions: 489/11, 18 h

**Q.** With `[N-]=[N+]=N[C@H]1C[C@H](n2cc(F)c(=O)[nH]c2=O)O[C@@H]1CO` as the compound, how does the IC50 [1] read?
**A.** 180 µM

**Q.** And the IC50 [2]?
**A.** 294 µM

**Q.** What about the “inhibition (INH)” value (LoVo) of the same compound?
**A.** 43%

**Q.** What about the IC50 [3] of the same compound?
**A.** 290 µM

**Q.** What about the “inhibition (INH)” value (HT-29) of the same compound?
**A.** 25%

**Q.** And the “inhibition (INH)” value [4]?
**A.** 25%

**Q.** What about the “inhibition (INH)” value [5] of the same compound?
**A.** 41%

**Q.** What about the IC50 (BALB/3T3) of the same compound?
**A.** 97.3 µM

**Q.** And the “Selectivity Index” value (HL-60 [6])?
**A.** 0.54

**Q.** And the “Selectivity Index” value [7]?
**A.** 0.33

**Q.** And the “Selectivity Index” value [8]?
**A.** 0.34

**Q.** What about the “Ratio IC50” value (HL-60 [9]) of the same compound?
**A.** 1.63

**Q.** What about the MIC (Staphylococcus aureus [10]) of the same compound?
**A.** 3.69 µM (≈ 1 µg/mL)

**Q.** And the MIC (Staphylococcus aureus [11])?
**A.** 3.69 µM (≈ 1 µg/mL)

**Q.** And the MIC (Staphylococcus aureus [12])?
**A.** 3.69 µM (≈ 1 µg/mL)

**Q.** What about the MIC (Staphylococcus aureus [13]) of the same compound?
**A.** 7.38 µM (≈ 2 µg/mL)

**Q.** And the MIC [14]?
**A.** 1.85 µM (≈ 0.502 µg/mL)

**Q.** And the MIC [15]?
**A.** 7.38 µM (≈ 2 µg/mL)

**Q.** What about the MIC (Staphylococcus aureus [16]) of the same compound?
**A.** 3.69 µM (≈ 1 µg/mL)

**Q.** What about the MIC (Staphylococcus aureus [17]) of the same compound?
**A.** 3.69 µM (≈ 1 µg/mL)

**Q.** What about the MIC (Staphylococcus aureus [18]) of the same compound?
**A.** 7.38 µM (≈ 2 µg/mL)

**Q.** And the MIC (Staphylococcus aureus [19])?
**A.** 3.69 µM (≈ 1 µg/mL)

**Q.** What about the MIC (Staphylococcus aureus [20]) of the same compound?
**A.** 7.38 µM (≈ 2 µg/mL)

**Q.** And the MIC (Staphylococcus aureus [21])?
**A.** 7.38 µM (≈ 2 µg/mL)

**Q.** What about the MIC (Staphylococcus aureus [22]) of the same compound?
**A.** 3.69 µM (≈ 1 µg/mL)

**Q.** What about the MIC (Staphylococcus aureus [23]) of the same compound?
**A.** 7.38 µM (≈ 2 µg/mL)

**Q.** What about the MIC (Staphylococcus aureus [24]) of the same compound?
**A.** 3.69 µM (≈ 1 µg/mL)

**Q.** What about the MIC (Staphylococcus aureus [25]) of the same compound?
**A.** 3.69 µM (≈ 1 µg/mL)

**Q.** What about the MIC [26] of the same compound?
**A.** 0.92 µM (≈ 0.25 µg/mL)

**Q.** What about the MIC [27] of the same compound?
**A.** 0.92 µM (≈ 0.25 µg/mL)

**Q.** And the MIC [28]?
**A.** 1.85 µM (≈ 0.502 µg/mL)

**Q.** And the MIC [29]?
**A.** 0.46 µM (≈ 0.125 µg/mL)

**Q.** What about the MIC [30] of the same compound?
**A.** 0.92 µM (≈ 0.25 µg/mL)

**Q.** And the MIC [31]?
**A.** 0.92 µM (≈ 0.25 µg/mL)

**Q.** And the MIC [32]?
**A.** 3.69 µM (≈ 1 µg/mL)

**Q.** And the MIC [33]?
**A.** 0.92 µM (≈ 0.25 µg/mL)

**Q.** And the MIC [34]?
**A.** 0.92 µM (≈ 0.25 µg/mL)

**Q.** And the MIC [35]?
**A.** 3.69 µM (≈ 1 µg/mL)
